Consider one molecule from patent US12589099B2 (priority 2021, dated 2026).

Common to all, as to type: in vivo, male Wistar rats
Data set [1] can be described thus: Body weight over the 35-day TBI study (overt toxicity). The conditions noted are these: 4.5 mg/kg IN twice daily. The source says:
(§1) Young adult (2-3 months) male Wistar rats were subjected to a moderate traumatic brain injury (TBI) induced by controlled cortical impact (CCI). Animal models of TBI including the CCI model and functional tests have been described in detail in peer reviewed publications (Xiong et al., 2013, Nat Rev Neurosci.; Zhang et al., 2016, J Neurosurg.; Zhang et al., 2016, Neurochem Int.; Zhang et al., 2021, J Neurotrauma). Injury consisted of a single impact at 4.0 m/sec, 2.5 mm deformation to the left parietal cortex. In addition, a group of animals was left healthy/not injured to serve as a healthy control.
The animals were divided into 3 groups: • 1) TBI+Vehicle (purified water, n=10) • 2) TBI+ALPHA-1062 (4.5 mg/kg) (n=10) • 3) Healthy/not injured and not treated (Sham surgery) (n=10)
The substance used in this study was ALPHA-1062 at 4.5 mg/kg. As control treatment (vehicle) purified water was administered intranasally (IN). The ALPHA-1062 and the control treatment were initiated 2 hours after injury and continued twice daily (with a 6-hour interval) for 35 consecutive days.

A further data set deals with total Tau. Nature of the data set: Total Tau immunostaining 35 days post-TBI. The settings on record: 4.5 mg/kg IN twice daily, cortex, DG, CA3, CA1 of ipsilateral hemisphere.
Description: as §1
(§2) The substance used in this study was ALPHA-1062 at 4.5 mg/kg. […]
(§3) Histological assessment was performed including quantitative image analysis protocols; followed by statistical analysis of the data. […]
(§4) For cell counting and quantitation NeuN+ cells were examined in the ipsilateral cortex, DG, CA1, and CA3 regions of the ipsilateral hippocampus. […] The number of BrdU+ cells (red-fluorophore) and NeuN (green-fluorophore)/BrdU-colabeled cells (yellow after merge) were counted. […] The immune-positive cells were determined and divided by the measured areas and presented as numbers per square mm. […] Tau or p-Tau immunoreactive areas including cortex, dentate gyrus, CA3 and CA1 regions of the ipsilateral hemisphere were imaged and quantified by Image J software (NIH).

Data set [2] deals with DCX+ neuroblasts in the dentate gyrus of the hippocampus. Nature of the data set: Doublecortin (DCX) IHC, neuroblasts in the dentate gyrus 35 days post-TBI. The conditions noted are these: 4.5 mg/kg IN twice daily; 35 days following TBI.
Description: as §1
The substance used in this study was ALPHA-1062 at 4.5 mg/kg. As control treatment (vehicle) purified water was administered intranasally (IN). […]
as §3
For cell counting and quantitation NeuN+ cells were examined in the ipsilateral cortex, DG, CA1, and CA3 regions of the ipsilateral hippocampus. […] The number of BrdU+ cells (red-fluorophore) and NeuN (green-fluorophore)/BrdU-colabeled cells (yellow after merge) were counted. […] The immune-positive cells were determined and divided by the measured areas and presented as numbers per square mm. […]

A further data set relates to pathological p-Tau (AT8). Nature of the data set: p-Tau (AT8) immunostaining 35 days post-TBI. The conditions noted are these: 4.5 mg/kg IN twice daily, cortex, DG, CA3, CA1 of ipsilateral hemisphere.
Description: as §1, §2, §3, §4

As to `COc1ccc2c3c1O[C@H]1C[C@@H](OC(=O)c4ccccc4)C=C[C@@]31CCN(C)C2` [ALPHA-1062, (4aS,6R,8aS)-5,6,9,10,11,12-hexahydro-3-methoxy-11-methyl-4aH-[1]benzofuro[3a,3,2-ef][2]benzazepin-6-ol benzoate], the overt toxicity result in data set [1] (35 days, compared to vehicle animals) is recorded as “did not show overt toxicity”. In addition, the “body weight compared to vehicle treated or untreated animals” value in data set [1] (each time point D0-D35, P>0.05) is reported as “no significant alterations in body weight”. The “body weight compared to day zero (D0), days 29-35” value in data set [1] (within group) is “significant body weight gain”. Further, the “body weight compared to day zero (D0), days 1-7” value in data set [1] (within group, p<0.05) is listed as “significant body weight loss”. The “total Tau protein” value with total Tau is recorded as “does not alter total Tau protein”. Further, in data set [2], the “DCX positive cells in dentate gyrus compared to sham surgery cohort” value was “comparable numbers” and the “DCX positive cells in dentate gyrus compared to vehicle” value is recorded as “higher number of DCX positive cells”. Besides, the “levels of p-Tau compared to vehicle controls” value in the data set on pathological p-Tau (AT8) is “significantly reduced levels of p-Tau”.
